Test system: Plasmodium berghei
Assay: Luciferase/luciferin-expressing antifolate-resistant parasites were used to infect a culture of HepG2 cells that were pre-incubated with compounds. Infected hepatocytes emit light due to the luciferase reaction. Assay results are presented as the percent inhibition of light emission compared to control. […]
Format: functional
Conditions: sporozoite; for IC90: read-out: LUCIFERASE INFECTION ASSAY - IC90
[1] = read-out: LUCIFERASE INFECTION ASSAY - IC50

Row | Compound | IC90 | IC50 [1] | further results
1 | CC(C)CNC1=C(Cl)C(=O)c2ccccc2C1=O | > 12.5 µM |  | IC50 (PBLUC_HILL_SLOPE 2.71, PBLUC_R_SQUARED 0.283, read-out: LUCIFERASE INFECTION ASSAY - IC50): 11.4 µM
2 | Cc1nc2ccc(N/N=C3\C=CC(=O)c4ncccc43)cc2s1 | 4.05 µM |  | IC50 (HEPG2TOX_HILL_SLOPE 2.99, HEPG2TOX_R_SQUARED 0.974, PBLUC_HILL_SLOPE 13.8, PBLUC_R_SQUARED 0.408, read-out: LUCIFERASE INFECTION ASSAY - IC50): 3.46 µM
3 | Cn1ccc2cc(-c3cn4c(-c5ccc6ncccc6c5)cnc4cn3)ccc21 | 3.52 µM | 1.36 µM | 
4 | CC(=O)NC(C)c1ccc(C2=NNC(=Nc3cccc(Cl)c3C)SC2)cc1 (stereo not drawn) | > 10 µM | > 10 µM | 
5 | C=CCn1c(SCC(=O)Nc2nnc(-c3ccccc3)o2)nc2cc(Cl)ccc2c1=O | > 10 µM | > 10 µM | 
6 | O=C(c1ccccc1)c1ccc(OCc2coc(-c3ccccc3)n2)cc1 | > 10 µM | > 10 µM | 
7 | C(#Cc1ccc(-c2cc[nH]n2)s1)c1ccccc1 | > 13.2 µM |  | IC50 (PBLUC_HILL_SLOPE 0.121, PBLUC_R_SQUARED 0.262, read-out: LUCIFERASE INFECTION ASSAY - IC50): 0.0465 µM
8 | Cc1sc2nc(-c3cccnc3)nc(Nc3ccc(N(C)C)nc3)c2c1C | 5.59 µM |  | IC50 (PBLUC_HILL_SLOPE 6.08, PBLUC_R_SQUARED 0.68, read-out: LUCIFERASE INFECTION ASSAY - IC50): 3.9 µM
9 | CN(C)c1ccc(NC(=O)N2[C@@H]3CC[C@@H](C3)[C@H]2c2nc3cccc(OCc4ccc(F)cc4)c3[nH]2)cc1 | > 10 µM |  | IC50 (PBLUC_HILL_SLOPE 11.3, PBLUC_R_SQUARED 0.0257, read-out: LUCIFERASE INFECTION ASSAY - IC50): > 10 µM
10 | CC(C)Cn1c(-c2cc([N+](=O)[O-])ccc2Cl)nc2c1c(=O)[nH]c(=O)n2Cc1ccccc1 | > 10 µM | > 10 µM | 
11 | CCOC(=O)C1=C(C)NC(C)=C(C(=O)OCC)C1c1ccc(-c2cc(C(F)(F)F)cc(C(F)(F)F)c2)o1 | > 6.21 µM |  | IC50 (FFLUC_HILL_SLOPE 13.3, FFLUC_R_SQUARED 0.16, read-out: LUCIFERASE INFECTION ASSAY - IC50): > 6.21 µM
12 | C#CCOc1ccccc1/C=C(\C#N)c1nc(N)nc(Nc2ccccc2)n1 | > 10 µM |  | IC50 (FFLUC_HILL_SLOPE 15.9, FFLUC_R_SQUARED 0.0727, HEPG2TOX_HILL_SLOPE 1.54, HEPG2TOX_R_SQUARED 0.555, PBLUC_HILL_SLOPE 1.18, PBLUC_R_SQUARED 0.297, read-out: LUCIFERASE INFECTION ASSAY - IC50): > 10 µM
13 | CSCCC(NCc1cc(C)n(-c2ccnn2C(C)C)c1C)c1nc2ccccc2[nH]1 (stereo not drawn) | > 10 µM | > 10 µM | 
14 | CC(C)(C)CN=C(C#N)C(C#N)/N=C/c1cccc(Cl)c1 (stereo not drawn) | > 11 µM | > 11 µM | 
15 | CCOC(=O)c1c(C)[nH]c(C(=O)C(C)OC(=O)CN2C(=O)C3CC=CCC3C2=O)c1C (stereo not drawn) | > 10 µM |  | IC50 (HEPG2TOX_HILL_SLOPE 1.33, HEPG2TOX_R_SQUARED 0.914, read-out: LUCIFERASE INFECTION ASSAY - IC50): > 10 µM
16 | O=S(=O)(c1ccccc1)c1nc(Nc2ccc(F)cc2F)sc1Cl | > 10 µM |  | IC50 (HEPG2TOX_HILL_SLOPE 0.283, HEPG2TOX_R_SQUARED 0.886, PBLUC_HILL_SLOPE 3.77, PBLUC_R_SQUARED 0.219, read-out: LUCIFERASE INFECTION ASSAY - IC50): 7.29 µM
17 | FC(F)(F)Oc1ccc(Nc2cc(-c3cccc(Cl)c3)ncn2)cc1 | > 9.02 µM | > 9.02 µM | 
18 | CCN(CC)S(=O)(=O)c1cccc(C(=O)c2c(C)c(Sc3ccc(Cl)cc3)c3ccccn23)c1 | > 10 µM |  | IC50 (FFLUC_HILL_SLOPE 1.47, FFLUC_R_SQUARED 0.14, read-out: LUCIFERASE INFECTION ASSAY - IC50): > 10 µM
19 | CN(C)S(=O)(=O)c1cccc(C(=O)Nc2cnc3ccccc3c2)c1 | > 10 µM |  | IC50 (PBLUC_HILL_SLOPE 0.341, PBLUC_R_SQUARED 0.599, read-out: LUCIFERASE INFECTION ASSAY - IC50): 0.331 µM
20 | Cc1nn(CC(=O)NC(C)c2cc3ccccc3o2)c(C)c1S(=O)(=O)N1CCc2ccccc21 (stereo not drawn) | > 10 µM | > 10 µM | 
21 | Cc1cccc(/C=C2\SC(=O)N(CCC(=O)Nc3ccc(-c4nnc5n4CCCCC5)cc3)C2=O)c1 | > 10 µM | > 10 µM | 
22 | Fc1ccc(CNc2ccc3ncc(Br)n3n2)cc1 | > 10.3 µM |  | IC50 (FFLUC_HILL_SLOPE 12.6, FFLUC_R_SQUARED 0.212, PBLUC_HILL_SLOPE 1.62, PBLUC_R_SQUARED 0.732, read-out: LUCIFERASE INFECTION ASSAY - IC50): 5.26 µM

Row | Compound | IC90 | IC50 [1] | further results
23 | Cc1cc(C)c(NC(=O)c2cc(C)on2)c(C)c1 | > 10 µM |  | IC50 (HEPG2TOX_HILL_SLOPE 17.1, HEPG2TOX_R_SQUARED 0.826, PBLUC_HILL_SLOPE 16.1, PBLUC_R_SQUARED 0.022, read-out: LUCIFERASE INFECTION ASSAY - IC50): 9.8 µM
24 | CCOc1cc(/C=C(\C#N)C(=O)c2cccc(OC)c2)cc(Cl)c1O | > 10 µM | > 10 µM | 
25 | N=C(Cc1ccc([N+](=O)[O-])cc1)NOC(=O)c1cccs1 | > 10.8 µM | > 10.8 µM | 
26 | Cc1nn(-c2cccc(Cl)c2)c2nc(-c3ccccc3)c(-c3nc4ccccc4s3)c(-c3cccnc3)c12 | > 10 µM |  | IC50 (HEPG2TOX_HILL_SLOPE 11.2, HEPG2TOX_R_SQUARED 0.958, read-out: LUCIFERASE INFECTION ASSAY - IC50): > 10 µM
27 | CS(=O)(=O)c1ccc(CN2CCN3C(C(=O)Nc4ccc(F)c(Cl)c4)=COC3=NC2=O)cc1 | > 10 µM |  | IC50 (HEPG2TOX_HILL_SLOPE 2.2, HEPG2TOX_R_SQUARED 0.936, PBLUC_HILL_SLOPE 1.17, PBLUC_R_SQUARED 0.243, read-out: LUCIFERASE INFECTION ASSAY - IC50): > 10 µM
28 | CN(C)c1cccc(-c2cnc3cnc(-c4cccc(NS(C)(=O)=O)c4)cn23)c1 | > 8.1 µM |  | IC50 (HEPG2TOX_HILL_SLOPE 7.18, HEPG2TOX_R_SQUARED 0.638, PBLUC_HILL_SLOPE 3.24, PBLUC_R_SQUARED 0.204, read-out: LUCIFERASE INFECTION ASSAY - IC50): 4.82 µM
29 | CN(CC(=O)Nc1nc2ccc(Cl)cc2s1)S(=O)(=O)c1ccc(C#N)cc1 | 8.36 µM | 5.71 µM | 
30 | CC1(C)CC2CC(C)(CN2C(=O)CN2CCN(c3cccc(C(F)(F)F)c3)CC2)C1 (stereo not drawn) | > 10 µM |  | IC50 (PBLUC_HILL_SLOPE 7.96, PBLUC_R_SQUARED 0.534, read-out: LUCIFERASE INFECTION ASSAY - IC50): 9.19 µM
31 | CN(Cc1ccccc1NC(=O)c1ccc2c(c1)OCC(=O)N2)C1CCCCC1 | > 10 µM |  | IC50 (PBLUC_HILL_SLOPE 10.4, PBLUC_R_SQUARED 0.15, read-out: LUCIFERASE INFECTION ASSAY - IC50): 9.56 µM
32 | FC(F)(F)Oc1cccc(-c2cnc3sc(NCCN4CCOCC4)nn23)c1 | > 7.98 µM |  | IC50 (PBLUC_HILL_SLOPE 2.27, PBLUC_R_SQUARED 0.551, read-out: LUCIFERASE INFECTION ASSAY - IC50): 5.39 µM
33 | CC(Sc1nc(-c2ccccc2)c(-c2ccccc2)o1)C(=O)NC1CC1 (stereo not drawn) | 5.53 µM |  | IC50 (PBLUC_HILL_SLOPE 75.9, PBLUC_R_SQUARED 0.255, read-out: LUCIFERASE INFECTION ASSAY - IC50): 5.37 µM
34 | O=C(NC(c1ccccc1)c1ccccc1)[C@H]1C[C@H](O)[C@@H](CO)O1 | > 10.1 µM | > 10.1 µM | 
35 | COc1cc(C(=O)Nc2ccc(C(=O)NC3CC3)cc2)cc(Cl)c1OC(C)C | > 10 µM |  | IC50 (PBLUC_HILL_SLOPE 2.4, PBLUC_R_SQUARED 0.128, read-out: LUCIFERASE INFECTION ASSAY - IC50): 6.06 µM
36 | CC(C)(C)c1cc(C(=O)Nc2ccc(Br)c(Cl)c2)n(Cc2ccccc2)n1 | > 7.39 µM |  | IC50 (FFLUC_HILL_SLOPE 13.4, FFLUC_R_SQUARED 0.471, HEPG2TOX_HILL_SLOPE 9.89, HEPG2TOX_R_SQUARED 0.67, PBLUC_HILL_SLOPE 12.6, PBLUC_R_SQUARED 0.293, read-out: LUCIFERASE INFECTION ASSAY - IC50): > 7.39 µM
37 | COc1ccc(C)cc1N(CC(=O)Nc1ccccc1C(=O)NCCc1ccccc1)S(=O)(=O)c1ccccc1 | > 10 µM | > 10 µM | 
38 | O=C(NCCC1=CCCCC1)c1ccccc1CN1C(=O)CNC1=O | > 10 µM | > 10 µM | 
39 | C/N=c1\scc(-c2ccc3c(c2)NC(=O)CO3)n1/N=C/c1cc(Br)c(O)c(OC)c1 | 7.81 µM |  | IC50 (HEPG2TOX_HILL_SLOPE 8.72, HEPG2TOX_R_SQUARED 0.934, PBLUC_HILL_SLOPE 4.3, PBLUC_R_SQUARED 0.314, read-out: LUCIFERASE INFECTION ASSAY - IC50): 4.68 µM
40 | CC(C)n1ncc2cc(NC(=O)C3=Cc4ccccc4OC3)cnc21 | > 10 µM |  | IC50 (PBLUC_HILL_SLOPE 12, PBLUC_R_SQUARED 0.534, read-out: LUCIFERASE INFECTION ASSAY - IC50): 9.28 µM
41 | COc1ccc(S(=O)(=O)N(Cc2cccs2)c2ccc3c(c2)OCCO3)cc1NC(C)=O | > 10 µM |  | IC50 (HEPG2TOX_HILL_SLOPE 1.25, HEPG2TOX_R_SQUARED 0.989, PBLUC_HILL_SLOPE 1.59, PBLUC_R_SQUARED 0.297, read-out: LUCIFERASE INFECTION ASSAY - IC50): 4.15 µM
42 | CCn1c(-c2ccccc2)c(C(=O)COc2ccccc2OC)c2ccccc21 | > 10 µM | > 10 µM | 
43 | Cc1ccc2cc(CN(CC(C)C)C(=O)c3cccc(Cl)c3)c(=O)[nH]c2c1 | 4.61 µM |  | IC50 (FFLUC_HILL_SLOPE 2.55, FFLUC_R_SQUARED 0.111, HEPG2TOX_HILL_SLOPE 13.7, HEPG2TOX_R_SQUARED 0.575, PBLUC_HILL_SLOPE 6.1, PBLUC_R_SQUARED 0.569, read-out: LUCIFERASE INFECTION ASSAY - IC50): 3.21 µM
44 | CCCCn1c(CSc2ccccn2)cn(-c2nnc(C(C)(C)C)s2)c1=O | > 8.18 µM | > 8.18 µM | 
